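Dose response: 5 concentrations. Exposure: 48 h. Format: 96-well plates. Endpoint: linear interpolation; highest concentration if not reached. TGI: concentration producing complete growth inhibition.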 Where a SMILES comes first, the peptide text is derived from it. [ ]: non-standard residue; d: D form. The star is where a group is joined. NMeV = CN[C@H](C(=O)O)C(C)C; X29 = COc1ccc(CN*)c(OC)c1; Octanoyl = CCCCCCCC(=O)*; dNMeA = CN[C@H](C)C(=O)O
Tests used:
Assay in all cases: inhibition of tumour cell growth, NCI panel, 48 h
DU-145 prostate = system: DU-145 prostate
SK-MEL-5 melanoma = system: SK-MEL-5 melanoma
NCI-H460 lung = system: NCI-H460 lung
SNB-19 CNS = system: SNB-19 CNS
KM12 colon = system: KM12 colon
SN12C renal = system: SN12C renal
RPMI-8226 leukemia = system: RPMI-8226 leukemia
HOP-92 NSCLC = system: HOP-92 NSCLC
HS 578T breast = system: HS 578T breast
T-47D breast = system: T-47D breast
M14 melanoma = system: M14 melanoma
UO-31 renal = system: UO-31 renal
A498 renal = system: A498 renal
CAKI-1 renal = system: CAKI-1 renal
SF-268 CNS = system: SF-268 CNS
CCRF-CEM leukemia = system: CCRF-CEM leukemia
NCI-H23 lung = system: NCI-H23 lung
TK-10 renal = system: TK-10 renal

Row | SMILES | TGI (DU-145 prostate) [µM] | TGI (SK-MEL-5 melanoma) [µM] | TGI (NCI-H460 lung) [µM] | TGI (SNB-19 CNS) [µM] | TGI (KM12 colon) [µM] | TGI (SN12C renal) [µM] | TGI (RPMI-8226 leukemia) [µM] | TGI (HOP-92 NSCLC) [µM] | TGI (HS 578T breast) [µM] | TGI (T-47D breast) [µM] | TGI (M14 melanoma) [µM] | TGI (UO-31 renal) [µM] | TGI (A498 renal) [µM] | TGI (CAKI-1 renal) [µM] | TGI (SF-268 CNS) [µM] | TGI (CCRF-CEM leukemia) [µM] | TGI (NCI-H23 lung) [µM] | TGI (TK-10 renal) [µM]
1 | CCCCCCCC(=O)N[C@H](C(=O)N[C@H](C(=O)N(C)[C@H](C(=O)N1CCC[C@H]1C(=O)N(C)[C@H](C)C(=O)NCc1ccc(OC)cc1OC)C(C)C)C(C)C)C(C)C (Octanoyl-VV[NMeV]P[dNMeA]-X29) | > 100 | 13 | > 100 | > 100 | > 100 | > 100 | > 26.3 | 36.7 | 33.4 | > 100 | > 68.1 | > 100 | 12.2 | > 86.3 | > 100 | > 72.9 | > 82.4 | > 100
2 | COCc1nc(N)nc(N2N=C(C)CC2(C)C)n1 | > 100 | > 100 | > 100 | > 100 | > 100 | > 100 | > 100 | > 100 | > 100 | > 100 | > 100 | > 100 | > 100 | > 100 | > 100 | > 100 | > 100 | > 100
3 | COC(=O)[C@@H]1[C@H](OC(C)=O)CCC2[C@@]3(C[C@@H](c4ccoc4)O[C@@H]3OC)[C@H](C)CC[C@]21C(=O)OC (some centres undefined) | > 25 | > 25 | > 25 | > 25 | > 25 | > 25 | > 25 | > 25 | > 25 | > 25 | > 25 | > 25 | > 25 | > 25 | > 25 | > 25 | > 25 | > 25
4 | COc1cc2c3c(c1)CCCN3CCC2 | > 10 | > 10 | > 10 | > 10 | > 10 | > 10 | > 10 | > 10 | > 10 | > 10 | > 10 | > 10 | > 10 | > 10 | > 10 | > 10 | > 10 | > 10
5 | CC(=O)c1ccc2c(c1)CC1(C2)Cc2cc3c(cc2C1=O)CCC3 (centres undefined) | 61.9 | 22.5 | 76.3 | > 100 | 32.4 | 57.3 | 35.2 | 65.5 | 89.5 | 88.5 | 28.9 | 63.5 | 51.7 | 47 | 88 | 59.2 | 89.1 | 71.3
6 | COc1cc(/C=C/c2nc(NC(=S)Nc3ccccc3)nnc2C)cc(OC)c1OC | > 100 | 29.1 | 36.8 | > 100 | 27.6 | > 100 | 67.8 | > 100 | > 100 | 90.1 | > 100 | 67.7 | 82.4 | > 100 | > 100 | 57.7 | 66.9 | > 100
7 | Cn1c(=O)c2c(nc3n2CC(=O)N3CCCCl)n(C)c1=O | > 100 | > 100 | > 100 | > 100 | > 100 | > 100 | > 100 | > 100 | > 100 | > 100 | > 100 | > 100 | > 100 | > 100 | > 100 | > 100 | > 100 | > 100
8 | CCOC(=O)C1C(c2ccc3c(c2)OCO3)c2c([nH][nH]c2=O)CC1(C)O (centres undefined) | > 100 | > 100 | > 100 | > 100 | > 100 | > 100 | > 100 | > 100 | > 100 | > 100 | > 100 | > 100 | > 100 | > 100 | > 100 | > 100 | > 100 | > 100
9 | C/C(=N\Nc1ccc([N+](=O)[O-])cc1[N+](=O)[O-])c1sc(-n2nc(-c3ccccc3)cc2-c2ccccc2)nc1C | > 100 | > 100 | > 100 | > 100 | > 100 | > 100 | 41.4 | 77.4 | > 100 | > 100 | > 100 | > 100 | 92.3 | > 100 | > 100 | 50.9 | > 100 | > 100
10 | CCN(CC)CC1CCCCN1CC(=O)N1c2ccccc2C(=O)Nc2cccnc21 (centres undefined) | > 100 | > 100 | > 100 | > 100 | > 100 | > 100 | 74.2 | > 100 | > 100 | > 100 | > 100 | 4.96 | > 100 | > 100 | > 100 | 38.5 | > 100 | > 100
11 | COC1=CC(=O)C2=C(C1=O)[C@H]1CC[C@]3(C)[C@@H](O)CC[C@H]3[C@@H]1CC2 | 31 | 28.8 | 35.8 | 73.2 | 32.3 | 30.6 | 44.4 | 37.5 | 42.7 | 38.4 | 31.3 | 43.5 | > 100 | 57.4 | 31 | 86.2 | 56.8 | 63.8
12 | COc1ccc(C(=O)/C=C/c2ccc(O)c(O)c2)c(OC)c1 | 15.7 | 13.3 | 15.9 | 19.4 | 15 | 13.2 | 15.8 | > 100 | > 100 | > 100 | 19 | 41.6 | 21.2 | 34.5 | > 52.6 | > 32 | 18.3 | 20.2
13 | CCOC(=O)c1c(C)nc2c1c(CN(C)C)c(O)c1[nH]c(C)c(C)nc12 | > 100 | 29.1 | 61.1 | > 100 | > 100 | 38.4 | 43.8 | 96.6 | 70.8 | 74.1 | > 100 | > 100 | 40 | > 100 | 93.1 | 38.3 | 89.3 | 72.8
14 | Oc1ccc(-c2cc(-c3cc(-c4ccc(O)cc4)no3)on2)cc1 | > 100 | > 100 | > 100 | > 100 | > 100 | > 100 | > 100 | > 100 | > 100 | > 100 | > 100 | > 100 | > 100 | > 100 | > 100 | > 100 | > 100 | > 100
15 | CN(C)c1ccc(C(Cc2ccccc2)C2NC(=S)NC2=O)cc1 (centres undefined) | > 100 | > 100 | > 100 | > 100 | > 100 | > 100 | > 100 | > 100 | > 100 | > 100 | > 100 | > 100 | > 100 | > 100 | > 100 | > 100 | > 100 | > 100
16 | Cc1ccc(NC(Nc2ccc(C)cc2C)=C(/C=C(\Cl)[N+](=O)[O-])[N+](=O)[O-])c(C)c1 | 33.2 | 13.4 | 36.7 | 26 | 26.7 | 14.4 | 4.36 | 3.99 | 17 | 3.99 | 5.69 | 19.2 | 32.4 | 4.23 | 10.3 | 1.72 | 20.8 | 13.2
17 | Cc1cc(S(=O)(=O)Nc2nc3ccccc3nc2-c2cccc([N+](=O)[O-])c2)c(S)cc1Cl | 36.8 | 28.4 | 35.3 | 39.9 | 31.3 | 78.5 | 64.7 | 46.5 | 73.4 | 38.9 | 35.1 | 46.1 | 29.1 | 39.4 | 56.2 | 75.7 | 33.7 | > 100
18 | C=C(Br)CNC(=O)Nc1ccc(Cl)c(Cl)c1 | 89.5 | 27.1 | > 100 | 73.5 | 34.4 | 82.7 | 50.7 | 41.2 | 54.3 | > 100 | 77.5 | 24.8 | 27.3 | 54.2 | 91.9 | 45.1 | 39.6 | 62.4
19 | O=[N+]([O-])c1nccn1CCCNc1ccnc2cc(Cl)ccc12 | > 100 | 10.9 | > 12 | > 64.2 | > 26.6 | > 85.1 | > 100 | > 21 | > 100 | > 89.9 | > 100 | > 88.4 | > 70.9 | > 7.83 | > 65.6 | > 100 | > 100 | > 11.7
20 | C[n+]1ccc(/C2=C3\C=CC(=N3)/C(c3cc[n+](C)cc3)=c3/cc/c([nH]3)=C(\c3cc[n+](C)cc3)C3=N/C(=C(/c4cc[n+](C)cc4)C4C=CC2N4)C=C3)cc1 | > 100 | > 100 | > 100 | > 100 | > 100 | > 100 | > 100 | > 100 | > 100 | > 100 | > 100 | > 100 | > 100 | > 100 | > 100 | > 100 | > 100 | > 100
21 | CC1(/C=C/CCSc2ccccc2)CC(=O)C2CC1C2(C)C (centres undefined) | > 100 | 23 | 71.6 | > 100 | 54.4 | 45.6 | 18.8 | > 75.4 | > 100 | > 100 | > 100 | 43.5 | > 88.3 | > 82 | > 100 | 31 | > 100 | > 70.1
22 | C=CCN1C(=O)/C(=C/c2cccs2)N=C1SC/C=C/C | > 100 | 37.7 | > 100 | > 100 | > 100 | 86.6 | 40.6 | > 100 | > 100 | > 100 | > 100 | > 100 | 98.8 | > 100 | > 100 | > 100 | > 100 | > 100
23 | O=C(CCCN1CCC2(CC1)CC(c1ccccc1)OC2=O)c1ccc(F)cc1 (centres undefined) | > 100 | 36.1 | > 100 | > 100 | 97.1 | > 100 | 51.3 | 76.9 | 95.2 | 69.1 | 30.9 | > 100 | 74.5 | 82.3 | > 100 | > 100 | > 100 | > 100

— PubChem BioAssay (NCI)
